According to ChEMBL document CHEMBL5375947, “Discovery of Efficient Hypoxia-Targeted NO Donor Compounds to Alleviate Hypoxia Cardiac Disease” (J Med Chem, 2023):
Calls of active or inactive are those of the source. The calls are words filed in the database; no cut-off is given here.

Key:
[1] = Toxicity in C57 mouse assessed as ratio of heart weight to body weight at 4 mg/kg IG administered twice a day for 3 days; type: organism-based; conditions: in vivo, po, 72 h, time 3 day
H9c2 [2] = assay: Anti-apoptotic activity in rat H9c2 cells assessed as late apoptotic cells by measuring red fluorescence intensity by annexin V-FITC/PI staining based confocal microscopic analysis; type: functional, cell-based
[3] = Toxicity in C57 mouse assessed as reduction in heart weight at 12 mg/kg, ip administered twice a day for 3 days (reference value: 0.56g); type: organism-based; conditions: in vivo, 72 h, time 3 day
H9c2 [4] = assay: Induction of NO release in rat H9c2 cells at 10 uM measured upto 12 hrs under hypoxia condition by griess reagent based assay; type: functional, cell-based
Mus musculus [5] = assay: Vasodilation activity against hypoxia-induced myocardial injury C57 mouse model assessed as vascular obstruction areas at 12 mg/kg, ip administered twice a day for 3 days; type: functional, organism-based; conditions: time 3.0 day
Mus musculus [6] = assay: Protection against hypoxia-induced myocardial injury C57 mouse model assessed as cellular arrangement disorder at 12 mg/kg, ip administered twice a day for 2 days by H and E staining based analysis; type: functional, organism-based; conditions: time 2.0 day
[7] = Toxicity in C57 mouse assessed as increase in body weight at 4 mg/kg, ip administered twice a day for 3 days; type: organism-based; conditions: in vivo, 72 h, time 3 day
H9c2 [8] = assay: Induction of NO release in rat H9c2 cells under hypoxia condition by griess reagent based assay; type: functional, cell-based; conditions: dose <= 15.0 µM
H9c2 [9] = assay: Induction of NO release in rat H9c2 cells at 10 uM under hypoxia condition by griess reagent based assay; type: functional
H9c2 [10] = assay: Induction of NO release in rat H9c2 cells at 10 uM measured at 30 mins under hypoxia condition by griess reagent based assay; type: functional; conditions: 0.5 h
H9c2 [11] = assay: Cytotoxicity against rat H9c2 cells assessed as reduction in cell viability at 0.01 to 10 uM under normoxia condition by CCK-8 assay; type: toxicity, cell-based; conditions: h9c2, 10 µM, dose 0.01-10 µM
H9c2 [12] = assay: Recovery of myocardial cell viability in rat H9c2 cells at 0.01 to 10 uM under hypoxia condition by CCK-8 assay; type: functional, cell-based; conditions: dose 0.01-10 µM
H9c2 [13] = assay: Induction of NO release in rat H9c2 cells at 10 uM under normoxia condition by griess reagent based assay; type: functional
Mus musculus [14] = assay: Induction of NO release in C57 mouse at 4 mg/kg, ip administered twice a day for 3 days; type: functional; conditions: time 3 day
H9c2 [15] = assay: Recovery of myocardial cell viability in rat H9c2 cells assessed as increase in ATP level at 10 micromol/L measured per mg of protein under hypoxia condition by fluorescence based assay; type: functional; conditions: dose 10 µmol/L
Mus musculus [16] = assay: Induction of NO release in C57 mouse at 4 to 12 mg/kg, ip administered twice a day for 3 days; type: functional, organism-based; conditions: dose 4-12 mg/kg, time 3.0 day
[17] = Toxicity in C57 mouse assessed as increase in cardiac swelling at 4 mg/kg, ip administered twice a day for 3 days; type: organism-based; conditions: in vivo, 72 h, time 3 day
H9c2 [18] = assay: Downregulation of mTORC1 expression in rat H9c2 cells at 5 to 10 uM by Western blot analysis; type: functional, cell-based; conditions: dose 5-10 µM
H9c2 [19] = assay: Induction of NO release in rat H9c2 cells at 5 to 10 uM under hypoxia condition by griess reagent based assay; type: functional, cell-based; conditions: dose 5-10 µM
Mus musculus [20] = assay: Vasodilation activity against hypoxia-induced myocardial injury ip dosed C57 mouse model assessed as vascular obstruction areas low dose administered twice a day for 3 days; type: functional, organism-based; conditions: time 3.0 day
[21] = Stability of compound in PBS at pH 7.4 by HPLC analysis; type: physicochemical; conditions: buffer
H9c2 [22] = assay: Downregulation of mTORC1 expression in rat H9c2 cells at 5 uM by Western blot analysis; type: functional, cell-based
Mus musculus [23] = assay: Vasodilation activity against hypoxia-induced myocardial injury ip dosed C57 mouse model assessed as vascular obstruction areas high dose administered twice a day for 3 days; type: functional, organism-based; conditions: time 3.0 day
H9c2 [24] = assay: Induction of NO release in rat H9c2 cells at 10 uM under hypoxia condition by DAF-FM fluorescence probe based spectroscopic assay; type: functional, cell-based
Mus musculus [25] = assay: Protection against hypoxia-induced myocardial injury ip dosed C57 mouse model assessed as cellular arrangement disorder at low dose administered twice a day for 2 days by H and E staining based analysis; type: functional, organism-based; conditions: time 2.0 day
[26] = Toxicity in C57 mouse assessed as reduction in heart weight at low dose administered twice a day for 3 days (reference value: 0.56g); conditions: in vivo, 72 h, time 3 day
H9c2 [27] = assay: Upregulation of TSC2-p expression in rat H9c2 cells at 5 to 10 uM by Western blot analysis; type: functional, cell-based; conditions: dose 5-10 µM
H9c2 [28] = assay: Downregulation of ACE expression in rat H9c2 cells at 5 uM by Western blot analysis; type: functional, cell-based
H9c2 [29] = assay: Recovery of myocardial cell viability in rat H9c2 cells under hypoxia condition by CCK-8 assay; type: functional, cell-based; conditions: dose 10.0 µM
H9c2 [30] = assay: Downregulation of ACE expression in rat H9c2 cells at 5 to 10 uM by Western blot analysis; type: functional, cell-based; conditions: dose 5-10 µM
[31] = Toxicity in C57 mouse assessed as increase in cardiac swelling at 12 mg/kg, ip administered twice a day for 3 days; type: organism-based; conditions: in vivo, 72 h, time 3 day
[32] = Toxicity in C57 mouse assessed as reduction in heart weight at high dose administered twice a day for 3 days (reference value: 0.56g); conditions: in vivo, 72 h, time 3 day
Mus musculus [33] = assay: Protection against hypoxia-induced myocardial injury ip dosed C57 mouse model assessed as collagen fiber proliferation at low dose administered twice a day for 3 days by masson staining based analysis; type: functional, organism-based; conditions: time 3.0 day
H9c2 [34] = assay: Recovery of myocardial cell viability in rat H9c2 cells at 0.01 to 1 uM under hypoxia condition by CCK-8 assay; type: functional, cell-based; conditions: dose 0.01-1 µM
H9c2 [35] = assay: Induction of NO release in rat H9c2 cells at 10 uM measured at 4 hrs under hypoxia condition by griess reagent based assay; type: functional, cell-based
Mus musculus [36] = assay: Protection against hypoxia-induced myocardial injury ip dosed C57 mouse model assessed as downregulation of mTORC1 expression in heart at low dose administered twice a day for 3 days by immunohistochemistry analysis; type: functional, organism-based; conditions: time 3.0 day
Mus musculus [37] = assay: Protection against hypoxia-induced myocardial injury ip dosed C57 mouse model assessed as downregulation of ACE expression in heart at low dose administered twice a day for 3 days by immunohistochemistry analysis; type: functional, organism-based; conditions: time 3.0 day
[38] = Toxicity in C57 mouse assessed as increase in body weight at 4 to 12 mg/kg IG administered twice a day for 3 days; type: organism-based; conditions: in vivo, po, 72 h, dose 4-12 mg/kg, time 3 day
Mus musculus [39] = assay: Protection against hypoxia-induced myocardial injury ip dosed C57 mouse model assessed as downregulation of mTORC1 expression in heart at high dose administered twice a day for 3 days by immunohistochemistry analysis; type: functional, organism-based; conditions: time 3.0 day
Mus musculus [40] = assay: Protection against hypoxia-induced myocardial injury IG dosed C57 mouse model assessed as collagen fiber proliferation at low dose administered twice a day for 3 days by masson staining based analysis; type: functional, organism-based; conditions: time 3.0 day
H9c2 [41] = assay: Effect on ACE expression in rat H9c2 cells at 1 uM by Western blot analysis; type: functional, cell-based
Mus musculus [42] = assay: Protection against hypoxia-induced myocardial injury C57 mouse model assessed as downregulation of ACE expression in heart at 12 mg/kg, IG administered twice a day for 3 days by immunohistochemistry analysis; type: functional, organism-based; conditions: time 3.0 day
Mus musculus [43] = assay: Protection against hypoxia-induced myocardial injury ip dosed C57 mouse model assessed as cellular arrangement disorder at high dose administered twice a day for 2 days by H and E staining based analysis; type: functional, organism-based; conditions: time 2.0 day
H9c2 [44] = assay: Effect on TSC2-p expression in rat H9c2 cells by Western blot analysis; type: functional, cell-based; conditions: dose 0.01-1 µM
[45] = Toxicity in C57 mouse assessed as ratio of heart weight to body weight at 4 to 12 mg/kg IG administered twice a day for 3 days; type: organism-based; conditions: in vivo, po, 72 h, dose 4-12 mg/kg, time 3 day
Mus musculus [46] = assay: Protection against hypoxia-induced myocardial injury ip dosed C57 mouse model assessed as downregulation of ACE expression in heart at high dose administered twice a day for 3 days by immunohistochemistry analysis; type: functional, organism-based; conditions: time 3.0 day
H9c2 [47] = assay: Effect on TSP1 expression in rat H9c2 cells at 10 uM by Western blot analysis; type: functional, cell-based
H9c2 [48] = assay: Induction of NO release in rat H9c2 cells at 10 uM measured at 4 hrs under normoxia condition by griess reagent based assay; type: functional
Mus musculus [49] = assay: Protection against hypoxia-induced myocardial injury C57 mouse model assessed as reduction in collagen fiber proliferation at 12 mg/kg, IG administered twice a day for 3 days by masson staining based analysis; type: functional, organism-based; conditions: time 3.0 day
H9c2 [50] = assay: Induction of NO release in rat H9c2 cells at 5 to 15 uM under hypoxia condition by griess reagent based assay; type: functional, cell-based; conditions: dose 5-15 µM

O=[N+]([O-])O[C@H]1CO[C@H]2[C@@H]1OC[C@H]2O[N+](=O)[O-] [ISOSORBIDE DINITRATE]
Ratio [1]: 0.59 | Activity (H9c2 [2]): Active | Activity [3]: 0.51 g | Activity (H9c2 [4]): Active | Activity (Mus musculus [5]): inactive | Activity (Mus musculus [6]): Active | Activity [7]: Non-Toxic | Activity (H9c2 [8]): Dose-Dependent Effect | Activity (H9c2 [9]): 27.41% | Activity (H9c2 [10]): ~30% | Activity (H9c2 [11]): Non-Toxic | Activity (H9c2 [12]): Active | Activity (H9c2 [13]): 36.89% | Activity (Mus musculus [14]): 54% | Activity (H9c2 [15]): 28.7 nmol

CN(N=O)c1ccc(OC(=O)OCc2ccc(Br)cc2[N+](=O)[O-])cc1
Activity (H9c2 [13]): <2%

CN(N=O)c1ccc(OC(=O)OCc2ccccc2[N+](=O)[O-])cc1
Activity (H9c2 [9]): >20% | Activity (H9c2 [13]): <2%

CN(N=O)c1ccc(OC(=O)OCc2ccc([N+](=O)[O-])cc2)cc1
Activity (Mus musculus [16]): Active | Activity [17]: Non-Toxic | Activity (H9c2 [2]): Active | Activity (H9c2 [18]): Active | Activity (H9c2 [19]): Active | Activity (Mus musculus [20]): Active | Stability [21]: 0.41% | Activity (H9c2 [22]): inactive | Activity [7]: Non-Toxic | Activity (Mus musculus [23]): Active | Activity (H9c2 [24]): Active | Activity (Mus musculus [25]): Active | Activity [26]: 0.57 g | Activity (H9c2 [9]): 24.38% | Activity (H9c2 [27]): Active | Activity (H9c2 [28]): inactive | Activity (H9c2 [11]): Non-Toxic | Activity (H9c2 [12]): Active | Activity (H9c2 [29]): Dose-Dependent Effect | Activity (H9c2 [30]): Active | Activity (H9c2 [13]): <2% | Activity [31]: Toxic | Activity [32]: 0.48 g | Activity (H9c2 [15]): 37.5 nmol | Activity (Mus musculus [33]): inactive | Activity (H9c2 [34]): Active

CN(N=O)c1ccc(OC(=O)OCc2cc(Cl)ccc2[N+](=O)[O-])cc1
Activity (H9c2 [13]): <2%

Cc1ccc(COC(=O)Oc2ccc(N(C)N=O)cc2)c([N+](=O)[O-])c1
Activity (H9c2 [13]): <2%

CN(N=O)c1ccc(OC(=O)OCc2ccc(Cl)cc2[N+](=O)[O-])cc1
Activity (H9c2 [13]): <2%

CN(N=O)c1ccc(OC(=O)OCc2ccc([N+](=O)[O-])cc2Cl)cc1
Activity (H9c2 [9]): >20% | Activity (H9c2 [13]): <2%

Cc1ccc([N+](=O)[O-])c(COC(=O)Oc2ccc(N(C)N=O)cc2)c1
Activity (H9c2 [13]): <2%

Cc1cc([N+](=O)[O-])ccc1COC(=O)Oc1ccc(N(C)N=O)cc1
Activity (H9c2 [35]): Active | Activity (Mus musculus [16]): Active | Activity (Mus musculus [36]): Active | Activity (H9c2 [2]): Active | Activity (H9c2 [19]): Active | Activity (Mus musculus [37]): Active | Activity [38]: Non-Toxic | Activity (Mus musculus [20]): Active | Activity (Mus musculus [39]): Active | Activity (H9c2 [4]): Active | Activity [7]: Non-Toxic | Activity (Mus musculus [23]): Active | Activity (H9c2 [24]): Active | Activity (Mus musculus [25]): Active | Activity [26]: 0.52 g | Activity (Mus musculus [40]): Active | Activity (H9c2 [41]): Active | Activity (H9c2 [9]): 43.21% | Activity (Mus musculus [42]): Active | Activity (H9c2 [27]): Active | Activity (Mus musculus [43]): Active | Activity (H9c2 [10]): 28% | Activity (H9c2 [44]): Dose-Dependent Effect | Activity (H9c2 [11]): Non-Toxic | Activity (H9c2 [12]): Active | Ratio [45]: 0.56 | Activity (Mus musculus [46]): Active | Activity (H9c2 [47]): Active | Activity (H9c2 [30]): Active | Activity (H9c2 [13]): <2% | Activity [31]: Toxic | Activity (H9c2 [48]): 0% | Activity (Mus musculus [49]): Active | Activity [32]: 0.48 g | Activity (H9c2 [15]): 44 nmol | Activity (Mus musculus [33]): Active | Activity (H9c2 [50]): Active
